Data published in EP1289507B1, “USE OF AN ALDOSTERONE ANTAGONIST FOR THE TREATMENT OR PROPHYLAXIS OF ALDOSTERONE-MEDIATED PATHOGENIC EFFECTS” (priority 2000, dated 2001).
Like-named read-outs stand apart in the source and are kept apart here.

How the values were obtained:
[1] = Food effect pharmacokinetic studies, Japan and Ex-Japan; assay type: in vivo, Japanese (Japan) and European (Ex-Japan) subjects
Experimental: The Ex-Japan trials included (i) a single dose tolerability trial, and (ii) a multiple dose tolerability trial, and (iii) a food effect study.
Both single dose and multiple dose tolerability trials were conducted in Japan utilizing healthy male Japanese subjects. […] Six subjects who received the 100 mg dose also participated in the food effect treatment arm of the single dose tolerability trial.
Table A-11C contains the geometric least squares means for the fed and fasting regimens, the ratios of means and the corresponding 95% confidence intervals (CI) for the ratios of the means for the Japan and Ex-Japan food effect trials.
Each panel consisted of six subjects who were given eplerenone and two subjects who were given placebo.

[2] = Pharmacokinetics and tolerability in subjects with moderate hepatic impairment vs normal healthy subjects; assay type: in vivo, human subjects; settings: for AUC(0-t): read-out: AUC (0-lqc), Least Squares Mean; for AUC(0-inf): read-out: AUC (0-∞), Least Squares Mean
[3] = system: patients with hypertension; assay: Clinical efficacy in hypertension: randomized double-blind study, cuff and ambulatory blood pressure; assay type: in vivo
Experimental: A multicenter, randomized, double-blind, parallel group study was conducted in patients with hypertension. […] The study consisted of a two-week pretreatment period for completion of screening procedures and discontinuation of any current antihypertensive medication(s). The screening period was followed by a four-week single-blind placebo lead-in treatment period.
The primary efficacy measure was the change from baseline in cuff diastolic blood pressure measured at trough as compared to placebo. Secondary efficacy measures included changes in cuff assessed trough systolic blood pressure and changes in average 24-hour diastolic and systolic blood pressure assessed by ambulatory blood pressure monitoring. Safety was assessed by conducting routine clinical lab tests, physical exams, ECGs, and monitoring for adverse events.

[4] = human, in vivo, 400 mg, Single Dose, Moderate Impairment
[5] = human, in vivo, 400 mg, Single Dose, Normal

SMILES: COC(=O)[C@@H]1CC2=CC(=O)CC[C@]2(C)[C@@]23O[C@@H]2C[C@@]2(C)[C@@H](CC[C@@]24CCC(=O)O4)[C@H]13 [Eplerenone, Pregn-4-ene-7,21-dicarboxylic acid, 9,11-epoxy-17-hydroxy-3-oxo-, γ-lactone, methyl ester, (7α, 11α, 17β)-]
- AUC (0-lqc), Mean Ratio ([1]; Ex-Japan Food Effect Study): 1.079
- Cmax, Mean Ratio (fed/fasted) ([1]; Ex-Japan Food Effect Study): 0.814
- AUC (0-inf), Mean Ratio ([1]; Japan Food Effect Study): 1.218
- AUC (0-lqc), Mean Ratio ([1]; Japan Food Effect Study): 1.218
- Cmax, Mean Ratio (fed/fasted) ([1]; Japan Food Effect Study): 1.157
- AUC (0-inf), Mean Ratio ([1]; human, in vivo): 1.079
- AUC greater among subjects with moderate hepatic impairment than matched normal subjects ([2]; 400 mg, single dosing, b445 and b448 state it for single and multiple dose): 41-50%
- Ratio of Means AUC (0-24)/AUC0-co) ([2]; Moderate Hepatic Impairment): 0.95
- AUC (0-24), Ratio of Means Moderate/Normal ([2]; Multiple Dose): 1.456
- CL/F, Ratio of Means Moderate/Normal ([2]; Multiple Dose): 0.687
- Cmax, Ratio of Means Moderate/Normal ([2]; Multiple Dose): 1.037
- XU(0-48), Ratio of Means Moderate/Normal ([2]; Multiple Dose): 2.007
- XU(0-48), Least Squares Mean ([2]; Multiple Dose, Moderate Impairment): 14.9 mg
- XU(0-48), Least Squares Mean ([2]; Multiple Dose, Normal): 7.4 mg
- Ratio of Means AUC (0-24)/AUC0-co) ([2]; Normal): 1.02
- AUC (0-lqc), Ratio of Means Moderate/Normal ([2]; Single Dose): 1.413
- AUC (0-∞), Ratio of Means Moderate/Normal ([2]; Single Dose): 1.497
- CL/.F, Ratio of Means Moderate/Normal ([2]; Single Dose): 0.668
- Cmax, Ratio of Means Moderate/Normal ([2]; Single Dose): 0.894
- XU(0-48), Ratio of Means Moderate/Normal ([2]; Single Dose): 1.016
- XU(0-48), Least Squares Mean ([2]; Single Dose, Moderate Impairment): 7.9 mg
- XU(0-48), Least Squares Mean ([2]; Single Dose, Normal): 7.8 mg
- AUC higher in moderate impairment compared to matched normal subjects ([2]; following multiple dosing 400 mg QD): 46%
- AUC tau at 24 h ([2]; human, in vivo, 400 mg, Multiple Dose, Moderate Impairment, read-out: AUC (0-24), Least Squares Mean): 43800 ng·h/mL
- CL/F ([2]; human, in vivo, 400 mg, Multiple Dose, Moderate Impairment, read-out: CL/F, Least Squares Mean (converted)): 152 mL/min
- CL/F ([2]; human, in vivo, 400 mg, Multiple Dose, Moderate, read-out: CL/F, Mean (converted)): 149 mL/min
- AUC tau at 24 h ([2]; human, in vivo, 400 mg, Multiple Dose, Normal, read-out: AUC (0-24), Least Squares Mean): 30100 ng·h/mL
- CL/F ([2]; human, in vivo, 400 mg, Multiple Dose, Normal, read-out: CL/F, Least Squares Mean (converted)): 222 mL/min
- CL/F ([2]; human, in vivo, 400 mg, Multiple Dose, Normal, read-out: CL/F, Mean (converted)): 230 mL/min
- Tmax ([2]; human, in vivo, 400 mg, Multiple Dose, Normal, read-out: Tmax, Least Squares Mean): 2.1 h
- AUC(0-t) [2, 4]: 42800 ng·h/mL
- AUC(0-inf) [2, 4]: 43600 ng·h/mL
- CL/F ([2]; human, in vivo, 400 mg, Single Dose, Moderate Impairment, read-out: CL/.F, Least Squares Mean (converted)): 153 mL/min
- CL/F ([2]; human, in vivo, 400 mg, Single Dose, Moderate, read-out: CL/F, Mean (converted)): 175 mL/min
- AUC(0-t) [2, 5]: 30300 ng·h/mL
- AUC(0-inf) [2, 5]: 29100 ng·h/mL
- CL/F ([2]; human, in vivo, 400 mg, Single Dose, Normal, read-out: CL/.F, Least Squares Mean (converted)): 228 mL/min
- CL/F ([2]; human, in vivo, 400 mg, Single Dose, Normal, read-out: CL/F, Mean (converted)): 254 mL/min
- AUC tau at 24 h ([2]; human, in vivo, 400 mg, linear kinetics assessment, Moderate Hepatic Impairment, read-out: Multiple Dose AUC (0-24), Least Squares Mean): 47200 ng·h/mL
- AUC tau at 24 h ([2]; human, in vivo, 400 mg, linear kinetics assessment, Normal, read-out: Multiple Dose AUC (0-24), Least Squares Mean): 29300 ng·h/mL
- subjects with adverse events ([2]; subjects with moderate hepatic impairment): 44%
- subjects with adverse events ([2]; subjects with normal hepatic function): 35%
- ABPM DBP, adjusted mean change from baseline to final visit ([3]; 50 mg/day (25 BID)): -4.1 mm Hg
- ABPM SBP, adjusted mean change from baseline to final visit ([3]; 50 mg/day (25 BID)): -7.5 mm Hg
- Cuff SBP, adjusted mean change from baseline to final visit ([3]; 50 mg/day (25 BID)): -8.1 mm Hg
- Cuff DBP, adjusted mean change from baseline to final visit ([3]; 50 mg/day (25 BID), eight weeks): -4.4 mm Hg
- ABPM DBP, adjusted mean change from baseline to final visit ([3]; 50 mg/day (50 QD)): -5.1 mm Hg
- ABPM SBP, adjusted mean change from baseline to final visit ([3]; 50 mg/day (50 QD)): -6.2 mm Hg
- Cuff DBP, adjusted mean change from baseline to final visit ([3]; 50 mg/day (50 QD)): -4.5 mm Hg
- Cuff SBP, adjusted mean change from baseline to final visit ([3]; 50 mg/day (50 QD)): -4.4 mm Hg
- ABPM DBP, adjusted mean change from baseline to final visit ([3]; 100 mg/day (50 BID)): -6.6 mm Hg
- ABPM SBP, adjusted mean change from baseline to final visit ([3]; 100 mg/day (50 BID)): -11.6 mm Hg
- Cuff DBP, adjusted mean change from baseline to final visit ([3]; 100 mg/day (50 BID)): -7.8 mm Hg
- Cuff SBP, adjusted mean change from baseline to final visit ([3]; 100 mg/day (50 BID)): -11.7 mm Hg
- ABPM DBP, adjusted mean change from baseline to final visit ([3]; 100 mg/day (100 QD)): -5.6 mm Hg
- ABPM SBP, adjusted mean change from baseline to final visit ([3]; 100 mg/day (100 QD)): -9.6 mm Hg
- Cuff DBP, adjusted mean change from baseline to final visit ([3]; 100 mg/day (100 QD)): -4.4 mm Hg
- Cuff SBP, adjusted mean change from baseline to final visit ([3]; 100 mg/day (100 QD)): -7.9 mm Hg
- ABPM DBP, adjusted mean change from baseline to final visit ([3]; 400 mg/day (200 BID)): -9.0 mm Hg
- ABPM SBP, adjusted mean change from baseline to final visit ([3]; 400 mg/day (200 BID)): -16.1 mm Hg
- Cuff DBP, adjusted mean change from baseline to final visit ([3]; 400 mg/day (200 BID)): -8.9 mm Hg
- Cuff SBP, adjusted mean change from baseline to final visit ([3]; 400 mg/day (200 BID)): -14.8 mm Hg
- ABPM DBP, adjusted mean change from baseline to final visit ([3]; 400 mg/day (400 QD)): -7.7 mm Hg
- ABPM SBP, adjusted mean change from baseline to final visit ([3]; 400 mg/day (400 QD)): -13.7 mm Hg
- Cuff DBP, adjusted mean change from baseline to final visit ([3]; 400 mg/day (400 QD)): -8.7 mm Hg
- Cuff SBP, adjusted mean change from baseline to final visit ([3]; 400 mg/day (400 QD)): -15.0 mm Hg
- Peak to trough ratios ([3]; QD and BID regimens, all doses): 1.04 - 1.10
- gynecomastia ([3]; eight-week double-blind treatment): no reports of gynecomastia
- tolerability ([3]; incidence of adverse events similar to placebo): well tolerated
